Measured values: patent US5891917A, “Certain acrylonitrile-sulfonamide derivatives” (Sugen, Inc., priority 1997, dated 1999)
Like-named read-outs stand apart in the source and are kept apart here.

Columns and labels:
Insulin Receptor = molecular target: T1, Insulin Receptor (Homo sapiens, UniProt P06213); assay: Cellular Insulin Receptor ELISA; assay type: cell-based; conditions: H25 cells, 100 nM insulin; read-out: ELISA DATA: IR
T1 construct: expressed in transfected cells; host or cells: H25 (NIH3T3 line overexpressing Insulin Receptor)
Method: Cellular Insulin Receptor ELISA (Version I)
The following protocol describes the cell line, reagents and procedures used to measure phosphotyrosine level on Insulin Receptor, which indicates Insulin Receptor tyrosine kinase activity.
MATERIALS AND REAGENTS (1). The cell line used in this assay is H25 (ATCC #CRL 8017), an NIH3T3 cell line which overexpresses Insulin Receptor.
(2). H25 cells are grown in an incubator with 5% CO2 at 37° C. The growth media is DMEM+10% FBS (heat inactivated)+2 mM L-Glutamine.
(3). For ELISA plate coating, the monoclonal anti-IR antibody named BBE is used. Antibodies are purified by the Enzymology Lab, SUGEN, Inc.
(1). The cells, grown in tissue culture dish (10 cm, Corning 25020-100) to 80-90% confluence, are harvested with Trypsin-EDTA (0.25%, 0.5 ml/D-100, GIBCO).
(2). Resuspend the cells in fresh DMEM+10% FBS+2 mM L-Glutamine, and transfer to 96-well tissue culture plate (Coming, 25806-96) at 20,000 cells/well (100 ul/well). Incubate for 1 day then replace medium to 0.01% serum medium (90/ul) and incubate in 5% CO2 and 37° C. overnight.
(1). Coat the ELISA plate (Corning 25805-96) with Anti-IR Antibody at 0.5 ug/well in 100 ul PBS at least 2 hours.
(2). Remove the coating solution, and replace with 100 ul Blocking Buffer, and shake for 30 minutes. Remove the blocking buffer and wash the plate just before adding lysate.
(1). The drugs are tested in serum-free condition.
(2). Dilute drug stock (in 100% DMSO) 1:10 with DMEM in 96-well poly-propylene plate, and transfer 10 ul/well of this solution to the cells to achieve final drug dilution 1:100, and final DMSO concentration of 1.0%. Incubate the cells in 5% CO2 at 37° C. for 2 hours.
(3). Prepare fresh cell lysis buffer (HNTG*) HNTG 2 ml EDTA 0.1 ml Na3VO4 0.1 ml Na4P2O7 0.1 ml H20 7.3 ml HNTG* 10 ml.
(4). After drug incubation for two hours, transfer 10 ul/well of 1 μM Insulin in PBS to the cells (Final Conc=100 nM), and incubate at 5% CO2 at 37° C. for 10 minutes.
(5). Remove media and add 100 ul/well HNTG* and shake for 10 minutes. Look at cells under microscope to see if they are adequately lysed.
(6). Use a 12-channel pipette to scrape the cells from the plate, and homogenize the lysate by repeat aspiration and dispense. Transfer all the lysate to the antibody coated ELISA plate [V.2.(2)], and shake for 1 hour.
(7). Remove the lysate, wash the plate, transfer anti-pTyr (1:3,000 with TBST) 100 ul/well, and shake for 30 minutes.
(8). Remove anti-pTyr, wash the plate, transfer detection antibody (1:3,000 with TBST) 100 ul/well, and shake for 30 minutes.
(9). Remove detection antibody, wash the plate, and transfer fresh ABTS/H2O2 (1.2 ul H2O2 to 10 ml ABTS) 100 ul/well to the plate to start color development.

3T3/IGF-1R cells = assay: IGF-1 Receptor Growth Assay (3T3/IGF-1R); assay type: cell-based
Method: IGF-1 Receptor Growth Assay
3T3/IGF-1 R (10% FBS/2 mM glutamine/DMEM)
Cell Plating--Trypsinize and count 3T3/IGF-1R and NIH 3T3 c7 cells. Dilute in growth media to 2000 cells/200 μl and seed flat bottom 96-well plates with 200 μl/well, one plate for two compounds for each cell line.
Compound preparation--Add DMSO to each compound to make 100 mM stock solutions.
Aliquot each compound to 3-4 sterile screw cap tubes and store at -20° C. After thawing, make sure the compound has gone completely back into solution. Throw away after 3 freeze/thaws.
3T3/IGF-1R cells--For each 96-well plate, make 15 ml of 10 nM IGF-1/0.5% FBS/2 mM glutamine/DMEM (30 μl of 5 μM IGF-1/15 ml).
Aliquot 1.5 ml 10 nM IGF-1/0.5% FBS to a sterile tube for each compound to be tested (the first time a compound is tested, use a 15 ml tube in case it is necessary to add extra medium to get it into solution).
Add 3 μl of 100 mM stock of each compound to a tube so 200 μM final. Shake or vortex until it goes into solution. If it is necessary to add additional medium, note the final concentration.
For the DMSO control, prepare 0.5 ml/plate of 0.2% DMSO/10 nM IGF-1/0.5% FBS (2 μl DMSO/ml).
For every two compounds, aliquot 130 μl 10 nM IGF-1/0.5% FBS to wells in columns 2-11 of a 96-well round bottom plate.
Add 260 μl of each compound to four wells in column 12.
Do 2-fold dilutions (130 μl) from columns 12 to 3 on each plate (column 2 will be for the untreated control), mixing thoroughly.
Remove medium from 3T3/IGF-1 R cells, one plate at a time.
Transfer 120 μl from each well on a compound dilution plate to the corresponding well of cells.
Add 120 μl 0.2% DMSO/10 nM IGF-1/0.5% FBS to four wells in column 1.
Add 120 μl 0.5% FBS (without IGF-1) to other four wells in column 1 for negative control.
Refeed--Repeat steps above, adding exactly the same IGF-1 and compound concentration to each well as before.
Analysis of cells--Look at wells with the highest concentrations for each compound to make sure it has not precipitated.
Detection--Follow the steps for fixing and staining described in the SOP for SRB Assays.
Data analysis--Find averages and standard deviations for each set of four OD's.
Using wells in column 2 (treated with IGF-1 but not compound) as 100%, calculate percent of control for each concentration of compound.
Determine the fold difference between the IGF-1-treated and untreated cells. It should be 2-3-fold.
Determine the percent of control for 0.2% DMSO.
Use a curve fit method to graph percent of control vs. log(molar concentration) and determine the IC50.

[1] = read-out: Growth Data: 3T3/IGF-1R-0.5% FBS
[2] = read-out: Growth Data: 3T3/IGF-1R-10% FBS

T1 sequence (P06213 763-1382 limits assumed, species assumed): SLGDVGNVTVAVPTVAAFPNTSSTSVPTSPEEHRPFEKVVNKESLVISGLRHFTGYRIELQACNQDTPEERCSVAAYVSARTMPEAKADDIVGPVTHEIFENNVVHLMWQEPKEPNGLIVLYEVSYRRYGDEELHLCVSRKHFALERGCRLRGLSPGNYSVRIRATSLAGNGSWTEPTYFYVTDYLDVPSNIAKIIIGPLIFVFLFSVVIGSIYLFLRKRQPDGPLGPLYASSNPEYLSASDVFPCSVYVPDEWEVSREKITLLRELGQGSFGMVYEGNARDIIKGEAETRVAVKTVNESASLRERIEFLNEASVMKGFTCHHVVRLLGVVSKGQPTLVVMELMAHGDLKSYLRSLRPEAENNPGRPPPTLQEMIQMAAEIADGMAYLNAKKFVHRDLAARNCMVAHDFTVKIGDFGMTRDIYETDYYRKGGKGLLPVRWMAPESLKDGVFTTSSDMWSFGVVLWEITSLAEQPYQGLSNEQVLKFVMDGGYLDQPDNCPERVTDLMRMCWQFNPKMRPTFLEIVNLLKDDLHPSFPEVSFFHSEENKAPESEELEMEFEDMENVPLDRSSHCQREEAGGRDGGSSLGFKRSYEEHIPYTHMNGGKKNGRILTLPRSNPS
T1 sequence (P06213 28-758 partner limits assumed, species assumed): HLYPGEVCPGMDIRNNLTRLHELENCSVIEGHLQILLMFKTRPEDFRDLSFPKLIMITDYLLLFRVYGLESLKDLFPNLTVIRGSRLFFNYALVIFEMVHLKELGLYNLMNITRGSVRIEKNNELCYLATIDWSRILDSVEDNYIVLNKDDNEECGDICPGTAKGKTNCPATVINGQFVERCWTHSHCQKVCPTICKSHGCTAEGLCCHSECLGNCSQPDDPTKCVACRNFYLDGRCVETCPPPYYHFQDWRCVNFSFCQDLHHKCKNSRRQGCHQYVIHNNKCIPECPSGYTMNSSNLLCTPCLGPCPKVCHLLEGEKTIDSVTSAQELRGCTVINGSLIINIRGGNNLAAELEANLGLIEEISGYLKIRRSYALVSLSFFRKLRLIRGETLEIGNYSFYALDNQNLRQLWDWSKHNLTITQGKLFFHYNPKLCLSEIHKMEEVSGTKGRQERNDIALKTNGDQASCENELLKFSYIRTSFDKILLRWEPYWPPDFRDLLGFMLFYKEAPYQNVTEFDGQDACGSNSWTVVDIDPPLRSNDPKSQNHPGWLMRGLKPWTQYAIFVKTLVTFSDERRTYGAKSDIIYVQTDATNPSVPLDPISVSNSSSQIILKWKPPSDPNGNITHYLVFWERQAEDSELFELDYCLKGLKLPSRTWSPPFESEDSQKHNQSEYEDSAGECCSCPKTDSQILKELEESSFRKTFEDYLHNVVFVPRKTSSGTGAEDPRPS

IC50 (Insulin Receptor) | SMILES | IC50 (3T3/IGF-1R cells; [1]) | IC50 (3T3/IGF-1R cells; [2])
51 µM | N#C/C(=C\c1ccc(O)cc1Cl)S(=O)(=O)NCCCc1ccccc1 [Compound 734] |  | 
8.8 µM | CC(C)c1cc(/C=C(\C#N)S(=O)(=O)NCc2ccccc2)cc(C(C)C)c1O [Compound 732] | 9.2 µM | 79 µM
27 µM | CC(C)c1cc(/C=C(\C#N)S(=O)(=O)/C(C#N)=C/c2cc(C(C)C)c(O)c(C(C)C)c2)cc(C(C)C)c1O [Compound 745] |  | 
> 100 µM | N#C/C(=C\c1ccc(O)cc1Cl)S(=O)(=O)NCc1ccccc1 [Compound 733] |  | 
12 µM | CC(C)c1cc(/C=C(\C#N)S(=O)(=O)c2ccccc2)cc(C(C)C)c1O [Compound 731] | 25 µM | 92 µM
9.2 µM | CC(C)c1cc(/C=C(\C#N)S(=O)(=O)c2ccc(F)cc2)cc(C(C)C)c1O [Compound 741, (E)-3-(3,5-Diisopropyl-4-hydroxyphenyl)-2-(4-fluorophenylsulfonyl)acrylonitrile] | 35 µM | 91 µM
15.1 µM | CC(C)c1cc(/C=C(\C#N)S(=O)(=O)Cc2cccc(C(F)(F)F)c2)cc(C(C)C)c1O [Compound 736] | 14.7 µM | 74 µM
